Laboratory results from patent publication US5595973A, “Protection of hemopoietic cells during chemotherapy or radiotherapy” (Biomeasure Incorporated, priority 1994, dated 1997).
Where a SMILES comes first, the peptide text is derived from it.

Legend:
Assay type in all cases: in vivo, BALB/C mice
hemopoietic cells = test: Proliferation of hemopoietic cells and tolerance of multiple cycles of Ara-C chemotherapy
Experimental: (§1) A number of assays were performed to show the effect of combining the hemopoiesis inhibitory factor and hemopoiesis growth factor on the proliferation of hemopoietic cells during chemotherapy.
(§2) Three groups of BALB/C mice were used in this study. Mice of the three groups were treated as follows (i.e., with Ara-C, the abbreviation of cytosine arabinoside, as the cytotoxic agent, AcSDKP as the hemopoiesis inhibitory factor, and GM-CSF as the hemopoiesis growth factor):
(§3) In each group, the animals were subjected to a sequence of three cycles of chemotherapy, i.e., Cycle I (Days 0-20), Cycle II (Days 21-37), and Cycle III (Days 38-56). Note that animals in each group were sacrificed on specific days for collection of blood samples, eliminating the artifact that may have been induced by intensive repetitive bleedings of the same animals.
(§4) Minipump implantations and excisions: The 200 μl capacity ALZET™ osmotic minipump Model 2001 (Alza Corporation, Palo Alto, Calif.) primed to deliver 1.0 μL/hour for 7 days was used for continuously administering the 100 ng/hour of AcSDKP in each cycle. More specifically, during each cycle, AcSDKP primed pumps were implanted s.c. prior to the first administration of Ara-C in the A.M. of day zero and excised in the A.M. of day 7. The first administration of Ara-C was in the A.M. of day zero and the last administration in the A.M. of day 6 (q.d., or once per day).
Treatment cycle: For the animals of Group 3, each cycle consists of a period in which Ara-C and AcSDKP were administered, a period in which the administered Ara-C and AcSDKP were purged, a period in which GM-CSF was administered, and, finally, a further recovery period. More specifically, after 7 consecutive days of Ara-C treatment during which time AcSDKP was administered by continuous s.c. infusion (see the preceding paragraph), a 2-day period followed so as to allow for purging of both AcSDKP and Ara-C. […]

platelets = test: Platelet counts in mice during three cycles of Ara-C chemotherapy; conditions: Group 3 (Ara-C+AcSDKP+GM-CSF) vs Group 2 (Ara-C+GM-CSF)
Experimental: as §1, §2, §3, §4
(§5) Treatment cycle: For the animals of Group 3, each cycle consists of a period in which Ara-C and AcSDKP were administered, a period in which the administered Ara-C and AcSDKP were purged, a period in which GM-CSF was administered, and, finally, a further recovery period. More specifically, after 7 consecutive days of Ara-C treatment during which time AcSDKP was administered by continuous s.c. infusion (see the preceding paragraph), a 2-day period followed so as to allow for purging of both AcSDKP and Ara-C. GM-CSF was then administered for 4 days (b.i.d., or twice per day), and the animals were permitted 4-8 more days at the end of the GM-CSF administration to recover before the initiation of the subsequent cycle (as in Cycles I and II) or before the collection of the last blood samples (as in Cycle III).
(§6) Blood sample collection: Blood samples (maximum attainable volume) for clinical pathology evaluations were collected from mice at euthanasia. The mice were food-fasted overnight prior to blood collection and samples were collected by puncture of the retro-orbital sinus after anesthetization by CO2 inhalation.
(§7) Analysis of blood samples: Hematology data were collected electronically and processed by the HUMMINGBIRD™ computer system (Laboratories Consulting, Inc., Madison, Wis.). Blood samples were processed and evaluated for the parameters specified (polymorphonuclear cell, platelet, and white blood cell counts in 10^3 cells/[…] as shown in Tables 2 and 3) using a Sysmex TOAE-2500 hematology analyzer (TOA Medical Electronics, Kobe, Japan).
(§8) See the right-hand column "percent change," i.e., (cell count from Group 2/cell count from Group 1)×100%, in Table 2. The data in Table 2 (as well as in Table 3) are log transformed to minimize the effect of outliers and the geometric means of the data are used for the analyses. The difference in the means between two test groups are compared for each of three different stages, i.e., chemotherapy (days 0-4, 21-25 and 38-42 in Cycles I, II and III, respectively), nadir (days 5-10, 26-31 and 43-48 in Cycles I, II and III, respectively), or recovery (days 11-20, 32-37 and 49-56 in Cycles I, II and III, respectively). Significant differences are marked by a large dot, which stands for P<0.003, a statistically significant p-value for data compared between two groups combined over the three cycles.

white blood cells = test: White blood cell counts in mice during three cycles of Ara-C chemotherapy; conditions: Group 3 (Ara-C+AcSDKP+GM-CSF) vs Group 2 (Ara-C+GM-CSF)
Experimental: as §1, §2, §3, §4, §5, §6, §7, §8

polymorphonuclear cells = test: Polymorphonuclear cell counts in mice during three cycles of Ara-C chemotherapy; conditions: Group 3 (Ara-C+AcSDKP+GM-CSF) vs Group 2 (Ara-C+GM-CSF)
Experimental: as §1, §2, §3, §4, §5, §6, §7
as §8, with “The” for “See the right-hand column "percent change," i.e., (cell count from Group 2/cell count from Group 1)×100%, in Table 2. The”

[1] = Cycle I, Chemotherapy (days 0-4)
[2] = Cycle II, Chemotherapy (days 21-25)
[3] = Cycle III, Chemotherapy (days 38-42)
[4] = Cycle I, Recovery (days 11-20), marked significant
[5] = Cycle II, Recovery (days 32-37), marked significant
[6] = Cycle III, Recovery (days 49-56), marked significant

SMILES: CC(=O)N[C@@H](CO)C(=O)N[C@@H](CC(=O)O)C(=O)N[C@@H](CCCCN)C(=O)N1CCC[C@H]1C(=O)O [AcSDKP, N-Acetyl-Ser-Asp-Lys-Pro] (Ac-SDKP-OH)
- Blood cell levels, effect of AcSDKP present during chemotherapy (hemopoietic cells; Group 3 (Ara-C+AcSDKP+GM-CSF) vs Group 2 (Ara-C+GM-CSF)): contributed to subsequent enhancement of blood cell levels by GM-CSF
- Ability to tolerate multiple cycles of chemotherapy (hemopoietic cells; combined use of AcSDKP and GM-CSF with Ara-C (Group 3)): allows multiple cycles of chemotherapy
- Percent change, platelet count (platelets; [1]): -53.4439%
- Percent change, platelet count (platelets; Cycle I, Nadir (days 5-10), marked significant): 20.9005%
- Percent change, platelet count (platelets; Cycle I, Recovery (days 11-20)): 23.6811%
- Percent change, platelet count (platelets; [2]): 29.203%
- Percent change, platelet count (platelets; Cycle II, Nadir (days 26-31), marked significant): 49.9274%
- Percent change, platelet count (platelets; Cycle II, Recovery (days 32-37)): 13.851%
- Percent change, platelet count (platelets; [3]): 36.6101%
- Percent change, platelet count (platelets; Cycle III, Nadir (days 43-48), marked significant): 32.1586%
- Percent change, platelet count (platelets; Cycle III, Recovery (days 49-56)): -0.7018%
- Platelet counts, change in words (platelets; nadir periods, p=0.0006): significantly increased
- Percent change, white blood cell count (white blood cells; [1]): -39.0687%
- Percent change, white blood cell count (white blood cells; Cycle I, Nadir (days 5-10)): -47.8669%
- Percent change, white blood cell count (white blood cells; [4]): 29.1779%
- Percent change, white blood cell count (white blood cells; [2]): -57.7294%
- Percent change, white blood cell count (white blood cells; Cycle II, Nadir (days 26-31)): -10.6607%
- Percent change, white blood cell count (white blood cells; [5]): 44.2989%
- Percent change, white blood cell count (white blood cells; [3]): 19.207%
- Percent change, white blood cell count (white blood cells; Cycle III, Nadir (days 43-48)): -9.4556%
- Percent change, white blood cell count (white blood cells; [6]): 50.2142%
- White blood cell counts, change in words (white blood cells; recovery periods, p=0.0001): significantly increased
- Percent change, polymorphonuclear cell count (polymorphonuclear cells; [1]): -66.466%
- Percent change, polymorphonuclear cell count (polymorphonuclear cells; Cycle I, Nadir (days 5-10)): -27.344%
- Percent change, polymorphonuclear cell count (polymorphonuclear cells; [4]): 52.314%
- Percent change, polymorphonuclear cell count (polymorphonuclear cells; [2]): -44.682%
- Percent change, polymorphonuclear cell count (polymorphonuclear cells; Cycle II, Nadir (days 26-31)): 130.128%
- Percent change, polymorphonuclear cell count (polymorphonuclear cells; [5]): 100.223%
- Percent change, polymorphonuclear cell count (polymorphonuclear cells; [3]): 37.246%
- Percent change, polymorphonuclear cell count (polymorphonuclear cells; Cycle III, Nadir (days 43-48)): 42.105%
- Percent change, polymorphonuclear cell count (polymorphonuclear cells; [6]): 95.829%
- Polymorphonuclear cell counts, change in words (polymorphonuclear cells; recovery periods, p=<0.0001): significantly increased
